Experimental data reported in US12133900B2, “Synthesis and composition of amino acid linking groups conjugated to compounds used for the targeted imaging of tumors” (Purdue Research Foundation, priority 2013, dated 2024).

What was measured:
[1] = target: T1, folate receptor (FR-α) on KB cells (Homo sapiens, UniProt P15328); assay: Competition binding with [3H]-folic acid on KB cells
T1 construct: KB cells that overexpress FR-α were seeded in 24-well (100,000 cells/well) Falcon plates; host or cells: KB cells (human; described as a HeLa derivative)
Experimental: KB cells that overexpress FR-α were seeded in 24-well (100,000 cells/well) Falcon plates and allowed to form monolayers over a period of 24 h. […] After incubating for 1 hour at 37° C., cells were rinsed with PBS (2×0.5 mL) and 1M trichloroacetic acid (1×0.5 mL) to remove any unbound radioactive materials. After adding 1% sodium dodecylsulfate in PBS (0.5 mL), cells were transferred into individual scintillation vials containing Ecolume scintillation cocktail (3.0 mL) and counted in a liquid scintillation analyzer. The relative binding affinities were calculated using a plot of cell bound radioactivity versus the concentration of the test article using Graph Pad Prism 4.
(§1) KB cells that overexpress FR-α were seeded in 24-well (100,000 cells/well) Falcon plates (BD Biosciences, CA) and allowed to form monolayers over a period of 12 h. […] After incubating for 1 h at 37° C., cells were rinsed with PBS (3×0.5 mL, Gibco, NY) to remove any unbound radioactive materials. After adding 0.25 M sodium hydroxide (0.5 mL) and incubating for 12 h at 4° C., cells were transferred into individual scintillation vials containing Ecolite scintillation cocktail (3.0 mL, MP Biomedicals, OH) and counted in a liquid scintillation analyzer (Packard). The relative binding affinities were calculated using a plot of % cell bound radioactivity versus the log concentration of the test article using GraphPad Prism 4.
as §1, with “12 hours.” for “12 h.”, “1 hour” for “1 h”, “12 hours” for “12 h”

[2] = test system: FR-positive IGROV tumor xenografts; assay: Imaging and biodistribution, IGROV ovarian xenograft; type: in vivo, mice; details: 2 nmol, 2 h
Experimental: (§2) Seven-week-old female nu/nu mice were inoculated subcutaneously with KB (1.0×10^6/mouse in RPM11640 medium), IGROV (5.0×10^6/mouse in 50% high concentrated matrigel+RPM11640 medium), SKOV3 (5.0×10^6/mouse in RPM11640 medium), OVCAR3 (5.0×10^6/mouse in RPM11640 medium), MDA-MB231 (1.0×10^6/mouse in RPM11640 medium), M109 (1.0×10^6/mouse in RPM11640 medium) or A549 cells (2.0×10^6/mouse in RPM11640 medium) on the shoulder. Growth of the tumors was measured in perpendicular directions every 2 days using a caliper (body weights were monitored on the same schedule), and the volumes of the tumors were calculated as 0.5×L×W^2 (L=longest axis and W=axis perpendicular to L in millimeters). Once tumors reached approximately 300-400 mm3 in volume, animals (3-5 mice/group) were intravenously injected with the compound of interest in PBS (for dose escalation in KB tumor model: 0.3-90 nmol, for time dependent in KB tumor model: 2 or 10 nmol, and for general whole body imaging and biodistribution for all tumor models: 2 nmol, in 100 μL in PBS per mouse). For whole body imaging and biodistribution studies, animals were euthanized 2 hours after administration of the compound of interest by CO2 asphyxiation. For time dependent studies, animals were imaged under anesthesia using isoflurane. Whole body imaging (intact tumor) experiments was then performed using a Caliper IVIS Lumina II Imaging Station with Living Image 4.0 software (PerkinElmer Inc, MA).
(§3) Following whole body imaging, animals were dissected and selected tissues (heart, lung, liver, spleen, kidneys, stomach, small intestine, large intestine, muscle, skin, and tumor) were analyzed for fluorescence activity using IVIS imager using same settings as in whole body imaging.

[3] = test system: FR-positive M109 tumors; assay: Imaging and biodistribution, M109 metastatic model; type: in vivo, mice; details: 2 nmol, 2 h
Experimental: as §2, with “For whole body imaging and biodistribution studies, animals were euthanized 2 hours after administration of the compound of interest by CO2 asphyxiation. For time dependent studies, animals were imaged under anesthesia using isoflurane. Whole body imaging (intact tumor) experiments was then performed using a Caliper IVIS Lumina II Imaging Station with Living Image 4.0 software (PerkinElmer Inc, MA).” left out
as §3

[4] = test system: FR-positive L1210A tumors; assay: Imaging and biodistribution, L1210A metastatic model (OTL38); type: in vivo, mice; details: 2 nmol, 2 h
Experimental: (§4) One million (1×106) of either L1210A or MDA-MB231 cancer cells per mouse (cancer cells/mouse) were administered via tail vein injection into the mice. Tumor growth was monitored every other day using a Caliper IVIS Lumina II Imaging Station with Living Image 4.0 software (PerkinElmer Inc.).
as §3

[5] = Chemical and optical properties of NIR dyes (Table 1); type: physicochemical
[6] = test system: breast cancer cells metastasized to lung; assay: Imaging, MDA-MB 231 metastatic model; type: in vivo, mice; details: 2 nmol, 2 h
Experimental: as §4

T1 sequence (P15328 25-234): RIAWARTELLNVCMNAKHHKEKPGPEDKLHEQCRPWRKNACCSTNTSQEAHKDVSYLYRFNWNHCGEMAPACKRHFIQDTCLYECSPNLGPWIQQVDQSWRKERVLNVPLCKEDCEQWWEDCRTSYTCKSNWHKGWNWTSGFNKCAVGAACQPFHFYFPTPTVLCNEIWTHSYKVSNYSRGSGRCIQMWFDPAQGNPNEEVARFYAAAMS

CC1(C)C(/C=C/C2=C(Oc3ccc(C[C@H](NC(=O)c4ccc(NCc5cnc6nc(N)[nH]c(=O)c6n5)cc4)C(=O)[O-])cc3)C(=C/C=C3\N(CCCCS(=O)(=O)[O-])c4ccc(S(=O)(=O)[O-])cc4C3(C)C)/CCC2)=[N+](CCCCS(=O)(=O)[O-])c2ccc(S(=O)(=O)[O-])cc21.[H+].[H+].[H+].[H+] [OTL-0038, Pte-Tyr-S0456]
affinity and specificity for folate receptor (words) ([1]; KB cells): compares well with the binding affinity of folic acid
competition with [3H]-folic acid ([1]; KB cells): competed well with [3H]-folic acid
affinity and specificity for folate receptor (words) ([1]; KB cells, listed as OTL38): binds to FR with high affinity and specificity
affinity and specificity for folate receptor (words) ([1]; KB cells, listed as Pte-Tyr-S0456): binds folate receptor with high affinity and specificity
Relative binding affinities ([1]; relative affinity of folic acid=1, <1 weaker): 0.71
ex-vivo tissue biodistribution [2]: highest fluorescence intensities were observed in FR-positive tumors and kidneys
tumor-to-normal tissue ratios [2]: excellent tumor-to-normal tissue ratios
whole body imaging: accumulation [2]: accumulated mainly in the FR-positive IGROV tumor xenografts
tumor-to-normal tissue ratios [3]: excellent tumor-to-normal tissue ratios
whole body imaging: accumulation [3]: accumulated mainly in the FR-positive M109 tumors metastasize to the liver, lung and spleen
tumor-to-normal tissue ratios [4]: excellent tumor-to-normal tissue ratios
whole body imaging: accumulation [4]: accumulated mainly in the FR-positive L1210A tumors metastasize to the liver, lung and spleen
E [5]: 272000 M⁻¹ cm⁻¹
Q (%) [5]: 15.6%
Stokes Shift (nm) [5]: 20 nm
λem (nm) [5]: 776 nm
λex (nm) [5]: 796 nm
accumulation [6]: mainly accumulated in the breast cancer cells metastasized to lung
